How the values were obtained:
[1] = system: TNF-α production following LPS-stimulation of human PBMC and human whole blood; experiment: in vitro pharmacological activity profile, comparison with thalidomide (cytokine production); assay type: cell-based
Protocol: The pharmacological properties of 3-(3,4-dimethoxy-phenyl)-3-(1-oxo-1,3-dihydro-isoindol-2-yl)-propionamide, including activity comparisons with thalidomide, are characterized in in vitro studies. Studies examine the effects of 3-(3,4-dimethoxy-phenyl)-3-(1-oxo-1,3-dihydro-isoindol-2-yl)-propionamide on the production of various cytokines. In addition, a safety pharmacology study of 3-(3,4-dimethoxy-phenyl)-3-(1-oxo-1,3-dihydro-isoindol-2-yl)-propionamide is conducted in dogs and the effects of the compound on ECG parameters are examined further as part of three repeat-dose toxicity studies in primates.
Inhibition of TNF-α production following LPS-stimulation of human PBMC and human whole blood by 3-(3,4-dimethoxy-phenyl)-3-(1-oxo-1,3-dihydro-isoindol-2-yl)-propionamide is investigated in vitro (Muller et al., Bioorg. Med. Chem. Lett. 9:1625-1630, 1999). The IC50's of 3-(3,4-dimethoxy-phenyl)-3-(1-oxo-1,3-dihydro-isoindol-2-yl)-propionamide for inhibiting production of TNF-α following LPS-stimulation of PBMC and human whole blood is measured.
The pharmacological effects of 3-(3,4-dimethoxy-phenyl)-3-(1-oxo-1,3-dihydro-isoindol-2-yl)-propionamide derive from its action as an inhibitor of cellular response to receptor-initiated trophic signals (e.g., IGF-1, VEGF, cyclooxygenase-2), and other activities.

[2] = cardiovascular and respiratory function in anesthetized dogs; assay type: in vivo; conditions: anesthetized Beagle dogs; 400, 800 and 1,200 mg/kg/day ascending doses, infusion through the jugular vein
Protocol: The effects of 3-(3,4-dimethoxy-phenyl)-3-(1-oxo-1,3-dihydro-isoindol-2-yl)-propionamide on cardiovascular and respiratory function are investigated in anesthetized dogs. Two groups of Beagle dogs (2/sex/group) are used. One group receives three doses of vehicle only and the other receives three ascending doses of 3-(3,4-dimethoxy-phenyl)-3-(1-oxo-1,3-dihydro-isoindol-2-yl)-propionamide (400, 800, and 1,200 mg/kg/day). In all cases, doses of 3-(3,4-dimethoxy-phenyl)-3-(1-oxo-1,3-dihydro-isoindol-2-yl)-propionamide or vehicle are successively administered via infusion through the jugular vein separated by intervals of at least 30 minutes.

CBP+/− mutant mice = conditions: cited from earlier work
[3] = system: rat mesencephalonic neurons; conditions: in the presence of the adenylate cyclase activator forskolin; cited from earlier work
patients with PD = conditions: cited from earlier work

COc1ccc(C(CC(N)=O)N2Cc3ccccc3C2=O)cc1OC (stereo not drawn) [3-(3,4-dimethoxy-phenyl)-3-(1-oxo-1,3-dihydro-isoindol-2-yl)-propionamide]
effect on generation of inflammatory cytokines ([1]; in vitro): suppresses the generation of inflammatory cytokines | potency relative to thalidomide (times more potent) ([1]; in vitro studies, pharmacological activity profile similar to thalidomide): 5 to 50 times | cardiovascular and respiratory changes compared to the vehicle control group [2]: minimal at all doses

COc1ccc([C@H]2CNC(=O)[C@H](Cc3cccc(C)c3)C2)cc1OC1CCCC1 [HT0712]
long-term memory defects (CBP+/− mutant mice): abolished the long-term memory defects

CCCCOc1cc(CC2CNC(=O)N2)ccc1OC (stereo not drawn) [Ro-20 1724]
uptake of dopamine [3]: stimulate uptake of dopamine

COc1ccc(C2CNC(=O)C2)cc1OC1CCCC1 (stereo not drawn) [Rolipram]
dose-limiting side effect (patients with PD; Phase II trials of PD): nausea | deterioration of the therapeutic action of dopamine against Lisuride (patients with PD; double-blind trial versus placebo, patients with PD already under treatment, 3 mg per day): no significant deterioration | long-term memory defects (CBP+/− mutant mice): abolished the long-term memory defects

COCCOc1cc(OCCOC)cc(-c2nc(C)cc3cc(OC)c(OC)cc23)c1 [SDZ-MNS 949]
uptake of dopamine [3]: stimulate uptake of dopamine
